17 molecules from patent US7495025B2, “Spiro-1,2,4-trioxanes” (Council of Scientific and Industrial Research, priority 2005, dated 2009) can be followed below.

Read-outs that look alike come from different tables or passages of the source.

In this experiment the test system is multi-drug resistant strain of Plasmodium yoelii Nigeriensis. As to the kind of experiment: Antimalarial activity against multi-drug resistant P. yoelii in Swiss mice (4-day treatment, observation till day 28). To be noted: for inhibition in vivo at 24 mg/kg/day / inhibition in vivo at 48 mg/kg/day / responders at 24 mg/kg/day / responders at 48 mg/kg/day / inhibition in vivo at 96 mg/kg/day / responders at 96 mg/kg/day: Plasmodium yoelii; for inhibition in vivo at 24 mg/kg/day / inhibition in vivo at 48 mg/kg/day / inhibition in vivo at 96 mg/kg/day: 96 h, read-out: % Suppression on Day 4; for responders at 24 mg/kg/day / responders at 48 mg/kg/day / responders at 96 mg/kg/day: 672 h. It is filed as in vivo. On the procedure: The antimalarial activity of the test compounds was evaluated in rodent using multi-drug resistant strain of Plasmodium yoelii Nigeriensis in Swiss mice.
Random bred Swiss mice of either sex (20±2 gm) were inoculated intraperitoneally with 1×10^5 P. yoelii (MDR) parasites on day zero. The treatments with test compounds were administered to group of 5 mice each at different dose levels ranging between 24-96 mg/kg/day. The treatment was administered in groundnut oil intramuscularly and orally for 4 consecutive days (day 0-3). Blood smears from experimental mice were observed on day 4 and 7, day 10 and thereafter at regular intervals till day 28 or death of the animal. The parasitaemia level on day 4 was compared with vehicle control group and the percent suppression of parasitaemia in treated groups were calculated.
The dose at which no parasitaemia develop during the observation period has been reported as the curative dose.

Setting [1] is: po, read-out: Mice alive on day-28.
Where [2] appears, read: Swiss mice, 96 mg/kg/day, i.m., in groundnut oil, days 0-3.
Setting [3] is: Swiss mice, 96 mg/kg/day, oral, in groundnut oil, days 0-3.
Setting [4] is: Swiss mice, 96 mg/kg/day, oral, in groundnut oil, days 0-3, read-out: Mice alive on day-28 (converted).
The mark [5] stands for this setting: im, Swiss mice, 96 mg/kg/day, i.m., in groundnut oil, days 0-3.
[6] abbreviates: im, Swiss mice, 96 mg/kg/day, i.m., in groundnut oil, days 0-3, read-out: Mice alive on day-28 (converted).
The mark [7] stands for this setting: Swiss mice, 48 mg/kg/day, oral, in groundnut oil, days 0-3.
The mark [8] stands for this setting: Swiss mice, 48 mg/kg/day, oral, in groundnut oil, days 0-3, read-out: Mice alive on day-28 (converted).
The mark [9] stands for this setting: Swiss mice, 24 mg/kg/day, oral, in groundnut oil, days 0-3.
The mark [10] stands for this setting: Swiss mice, 24 mg/kg/day, oral, in groundnut oil, days 0-3, read-out: Mice alive on day-28 (converted).
The mark [11] stands for this setting: im, Swiss mice, 48 mg/kg/day, i.m., in groundnut oil, days 0-3.
Where [12] appears, read: im, Swiss mice, 48 mg/kg/day, i.m., in groundnut oil, days 0-3, read-out: Mice alive on day-28 (converted).

Turning to `CCN(CC)CCCC(C)Nc1ccnc2cc(Cl)ccc12` (centres unmarked) [Chloroquine, reference compound], for the setting “po”, the inhibition in vivo at 24 mg/kg/day stood at 100% and the inhibition in vivo at 48 mg/kg/day worked out at 100%. Under setting [1], the responders at 24 mg/kg/day was determined as 0% and the responders at 48 mg/kg/day was 40%.

In the case of `C=C(c1ccccc1)C1COC2(CCC(=O)CC2)OO1` (centres unmarked) [Compound 3a, 3-(1-Phenyl-vinyl)-1,2,5-trioxaspiro[5.5]undec-9-one], under setting [2], the “% Suppression on Day 4” value was found to be 99% and the “Mice alive on day-28” value is 0/5.

As to `C=C(c1ccc(-c2ccccc2)cc1)C1COC2(CCC(=O)CC2)OO1` (centres unmarked) [Compound 3b, 3-(1-Biphenyl-4yl-vinyl)-1,2,5-trioxaspiro[5.5]undec-9-one], under setting [2], the “% Suppression on Day 4” value is 100% and the “Mice alive on day-28” value is reported as 1/5.

For `C=C(c1ccc(Cl)cc1)C1COC2(CCC(=O)CC2)OO1` (centres unmarked) [Compound 3c, 3-[1-(4-Chloro-phenyl)-vinyl]-1,2,5-trioxa-spiro[5.5]undecan-9-one], under setting [3], the inhibition in vivo at 96 mg/kg/day amounted to 100%. Besides, the responders at 96 mg/kg/day under setting [4] is 0%.

For the molecule `C=C(c1ccc(C2CCCCC2)cc1)C1COC2(CCC(=O)CC2)OO1` (centres unmarked) [Compound 3f, 3-[1-(4-Cyclohexyl-phenyl)-vinyl]-1,2,5-trioxa-spiro[5.5]undecan-9-one], the inhibition in vivo at 96 mg/kg/day under setting [3] came out at 100% and the inhibition in vivo at 96 mg/kg/day under setting [5] worked out at 100%. In addition, the responders at 96 mg/kg/day is 60% under setting [4] and 40% under setting [6].

Consider `C=C(c1cccc2ccccc12)C1COC2(CCC(=O)CC2)OO1` (centres unmarked) [Compound 3g, 3-(1-Naphthalen-1-yl-vinyl)-1,2,5-trioxa-spiro [5.5]undecan-9-one], for which the inhibition in vivo at 96 mg/kg/day under setting [3] was 100%. Besides, under setting [4], the responders at 96 mg/kg/day was 20%.

For the molecule `C=C(c1ccccc1)C1COC2(CCC(=CC(=O)OCC)CC2)OO1` (centres unmarked) [Compound 4aa, [3-(1-Phenyl-vinyl)-1,2,5-trioxa-spiro[5.5]undec-9-ylidene]-acetic acid ethyl ester], the inhibition in vivo at 48 mg/kg/day under setting [7] was found to be 100%. Besides, the responders at 48 mg/kg/day under setting [8] was 100%. The inhibition in vivo at 96 mg/kg/day under setting [5] turned out to be 99%. The responders at 96 mg/kg/day under setting [6] was 40%.

In the case of `C=C(c1ccc(-c2ccccc2)cc1)C1COC2(CCC(=CC(=O)OCC)CC2)OO1` (centres unmarked) [Compound 4ab, [3-(1-Biphenyl-4-yl-vinyl)-1,2,5-trioxa-spiro[5.5]undec-9-ylidene]-acetic acid ethyl ester], the inhibition in vivo at 96 mg/kg/day under setting [3] was determined as 100%. For the same molecule, the responders at 96 mg/kg/day under setting [4] is 100%.

`C=C(c1ccc(Cl)cc1)C1COC2(CCC(=CC(=O)OCC)CC2)OO1` (centres unmarked) [Compound 4ac, {3-[1-(4-Chloro-phenyl)-vinyl]-1,2,5-trioxa-spiro[5.5]undec-9-ylidene}-acetic acid ethyl ester]: under setting [9], the inhibition in vivo at 24 mg/kg/day came to 100%. Also, the inhibition in vivo at 48 mg/kg/day came out at 100% under setting [7] and 100% under setting [11]. Under setting [10], the responders at 24 mg/kg/day was 60%. Besides, the responders at 48 mg/kg/day under setting [8] was 100% and the responders at 48 mg/kg/day under setting [12] is 60%. Besides, under setting [5], the inhibition in vivo at 96 mg/kg/day stood at 100%. Moreover, the responders at 96 mg/kg/day under setting [6] is 100%.

For the molecule `C=C(c1ccc(OC)cc1)C1COC2(CCC(=CC(=O)OCC)CC2)OO1` (centres unmarked) [Compound 4ad, {3-[1-(4-Methoxy-phenyl)-vinyl]-1,2,5-trioxa-spiro[5.5]undec-9-ylidene}-acetic acid ethyl ester], the inhibition in vivo at 96 mg/kg/day was found to be 100% under setting [3] and 100% under setting [5]. For the same molecule, the responders at 96 mg/kg/day is 100% under setting [4] and 40% under setting [6].

Regarding `C=C(c1ccc(C)cc1)C1COC2(CCC(=CC(=O)OCC)CC2)OO1` (centres unmarked) [Compound 4ae, [3-(1-p-Tolyl-vinyl)-1,2,5-trioxa-spiro[5.5]undec-9-ylidene]-acetic acid ethyl ester], the inhibition in vivo at 24 mg/kg/day under setting [9] was 100%. Also, the inhibition in vivo at 48 mg/kg/day by setting is: under setting [7], 100%; under setting [11], 100%. For the same molecule, the responders at 24 mg/kg/day under setting [10] was 60%. Further, the responders at 48 mg/kg/day under setting [8] was 100% and the responders at 48 mg/kg/day under setting [12] is 40%. For the same molecule, the inhibition in vivo at 96 mg/kg/day under setting [5] stood at 100%. Also, under setting [6], the responders at 96 mg/kg/day is 100%.

Regarding `C=C(c1ccc(C2CCCCC2)cc1)C1COC2(CCC(=CC(=O)OCC)CC2)OO1` (centres unmarked) [Compound 4af, {3-[1-(4-Cyclohexyl-phenyl)-vinyl]-1,2,5-trioxa-spiro[5.5]undec-9-ylidene}-acetic acid ethyl ester], under setting [7], the inhibition in vivo at 48 mg/kg/day was determined as 100%. In addition, the inhibition in vivo at 96 mg/kg/day under setting [3] was 100%. Further, the responders at 48 mg/kg/day under setting [8] is 60%. Besides, the responders at 96 mg/kg/day under setting [4] is 80%.

Consider `C=C(c1cccc2ccccc12)C1COC2(CCC(=CC(=O)OCC)CC2)OO1` (centres unmarked) [Compound 4ag, [3-(1-Naphthalen-1-yl-vinyl)-1,2,5-trioxa-spiro[5.5]undec-9-ylidene]-acetic acid ethyl ester], for which the inhibition in vivo at 96 mg/kg/day under setting [5] came out at 100%. For the same molecule, the responders at 96 mg/kg/day under setting [6] is 100%.

In the case of `C=C(c1ccc2ccccc2c1)C1COC2(CCC(=CC(=O)OCC)CC2)OO1` (centres unmarked) [Compound 4ah, [3-(1-Naphthalen-2-yl-vinyl)-1,2,5-trioxa-spiro[5.5]undec-9-ylidene]-acetic acid ethyl ester], under setting [9], the inhibition in vivo at 24 mg/kg/day was found to be 100%. The inhibition in vivo at 48 mg/kg/day under setting [7] was 100%. For the same molecule, the responders at 24 mg/kg/day under setting [10] is 20%. The responders at 48 mg/kg/day under setting [8] is 100%. In addition, the inhibition in vivo at 96 mg/kg/day under setting [5] came to 88%. For the same molecule, the responders at 96 mg/kg/day under setting [6] was 40%.

Regarding `C=C(c1ccc(-c2ccccc2)cc1)C1COC2(CCC(=C(C)C(=O)OCC)CC2)OO1` (centres unmarked) [Compound 4bb, 2-[3-(1-Biphenyl-4-yl-vinyl)-1,2,5-trioxa-spiro [5.5]undec-9-ylidene]-propionic acid ethyl ester], the inhibition in vivo at 96 mg/kg/day under setting [3] is 100%. Under setting [4], the responders at 96 mg/kg/day is 60%.

On to `C=C(c1ccc(C2CCCCC2)cc1)C1COC2(CCC(=C(C)C(=O)OCC)CC2)OO1` (centres unmarked) [Compound 4bf, 2-{3-[1-(4-Cyclohexyl-phenyl)-vinyl]-1,2,5-trioxa-spiro[5.5]undec-9-ylidene}-propionic acid ethyl ester], for which, under setting [3], the inhibition in vivo at 96 mg/kg/day was found to be 100%. Under setting [4], the responders at 96 mg/kg/day was 40%.

For `CCO[C@H]1O[C@@H]2O[C@@]3(C)CC[C@H]4[C@H](C)CC[C@@H]([C@H]1C)[C@@]24OO3` [β-Arteether, reference compound], the “% Suppression on Day 4” value worked out at 100% under setting [9] and 100% under setting [7]. For the same molecule, the “Mice alive on day-28” value under setting [9] is on record as 1/5 and the “Mice alive on day-28” value under setting [7] was 5/5.
